Consider 20 compounds from patent publication US20220251092A1, “CASEIN KINASE 1EPSILON INHIBITOR, PHARMACEUTICAL COMPOSITION AND APPLICATION THEREOF” (HANGZHOU HEALZEN THERAPEUTICS CO., LTD., priority 2019, published 2022).

Broadly, the IC50 is the concentration that gives 50% inhibition.

For one test, the target named is CK1ε (Homo sapiens, UniProt P49674). Kind of test: CK1ε kinase activity assay (Caliper, FAM-labelled polypeptide). It is filed as biochemical. Here is the method: The in-vitro assay of inhibitory activity of the compound herein against CK1ε kinase was:
(1) preparation of 1× kinase basic buffer and stop buffer: • 1×kinase basic buffer: 50 mM HEPES, pH 7.5; and 0.0015% Brij-35; • stop buffer: 100 mM HEPES, pH 7.5; 0.015% Brij-35; 0.2% Coating Reagent #3; and 50 mM EDTA.
(2) preparation of the test compound: • a 50× (“n×” represents dilution factor, same hereafter) stock solution of the compound with DMSO (10 mM, DMSO) to obtain stock solution I for use; […] of stock solution I was placed in a 96-well plate, each compound sample was diluted by 5-fold serial dilution till 10 concentrations was obtained while ensuring 10 μl of drug solution in each well; meanwhile, 100 μl of DMSO was used as a blank control group and a negative control group without enzyme substrate; • a separate 96-well plate was prepared, and to 10 μl of the above compound,
90 μl of 1× kinase foundation buffer was added, mixed well for 10 min to obtain a mixture.

In a further test the test system is OCI-LY10 cells. Kind of test: In-vitro anti-tumor activity, OCI-LY10 cells, CCK-8. It is filed as cell-based, human. Conditions: Homo sapiens; OCI-LY10, 72h, CCK-8; read-out: IC50. As for the experimental part:
The in-vitro anti-tumor activities of the synthesized compounds were determined using a diffuse large B-cell lymphoma (OCI-LY10) cell strain:
Drug preparation method: The drug was dissolved in DMSO to make a stock solution of 10 mM and diluted in a certain ratio to obtain 7 different concentrations (test concentration: 100×).
In vitro culture of tumor cells: The selected OCI-LY10 cells were incubated with a medium of IMDM+fetal bovine serum in a 5% CO2 cell culture incubator at 37° C., and were passaged when the cell density grew to 70-90% (adherent cells were passaged after digestion with Duck's EDTA) for later experiments as needed. Four thousand cells/200 μl/well were seeded in a 96-well plate and incubated overnight in a 5% CO2 cell incubator at 37° C. Two μl of the compounds were dispensed in each well at final concentrations of […], and incubation was performed together for 72h in a 5% CO2 cell incubator at 37° C. with DMSO (2%) as control. After 72h, 20 μl of CCK-8 solution was added and the plate was placed in a 5% CO2 cell culture incubator at 37° C. for 4h. Wells with the corresponding amounts of cell culture medium and CCK-8 solution but without cells were used as blank controls. The absorbance (OD values) was measured at 450 nm using an enzyme marker, and the obtained data were used to calculate the IC50.

Sequence of CK1ε (P49674 whole entry): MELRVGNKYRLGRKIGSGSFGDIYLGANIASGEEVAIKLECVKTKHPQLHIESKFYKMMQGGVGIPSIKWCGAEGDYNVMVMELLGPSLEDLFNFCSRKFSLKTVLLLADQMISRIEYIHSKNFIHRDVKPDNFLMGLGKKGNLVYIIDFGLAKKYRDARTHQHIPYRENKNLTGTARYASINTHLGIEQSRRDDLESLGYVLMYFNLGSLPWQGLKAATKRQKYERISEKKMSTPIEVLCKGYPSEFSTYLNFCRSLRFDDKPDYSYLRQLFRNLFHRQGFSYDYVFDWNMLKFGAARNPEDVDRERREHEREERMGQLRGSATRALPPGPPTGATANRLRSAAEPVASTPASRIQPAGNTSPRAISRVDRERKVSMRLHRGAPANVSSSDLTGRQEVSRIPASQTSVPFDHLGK

Consider `CCOc1ccc(-c2nn(C(C)c3nc4ccccc4c(=O)n3-c3ccccc3)c3ncnc(N)c23)c(F)c1F` (centres unmarked) [II-A-3, 2-(1-(4-amino-3-(4-ethoxy-2,3-difluorophenyl)-1H-pyrazolo[3,4-d]pyrimidin-1-yl)ethyl)-3-phenylquinazolin-4(3H)-one], for which the IC50 against CK1ε was 232 nM. For the compound `COc1ccc(-c2nn(C(C)c3nc4ccc(F)cc4c(=O)n3-c3ccccc3)c3ncnc(N)c23)c(F)c1F` (centres unmarked) [II-A-9, 2-(1-(4-amino-3-(2,3-difluoro-4-methoxyphenyl)-1H-pyrazolo[3,4-d]pyrimidin-1-yl)ethyl)-6-fluoro-3-phenylquinazolin-4(3H)-one], it took 100 nM to reach half-maximal inhibition against CK1ε (IC50). Turning to `COc1ccc(-c2nn(C(C)c3nc4cccc(Cl)c4c(=O)n3-c3cccnc3)c3ncnc(N)c23)c(F)c1F` (centres unmarked) [II-B-2, 2-(1-(4-amino-3-(2,3-difluoro-4-methoxyphenyl)-1H-pyrazolo[3,4-d]pyrimidin-1-yl)ethyl)-5-chloro-3-(pyridin-3-yl)quinazolin-4(3H)-one], the IC50 stood at 372 nM at CK1ε and 193 nM in the test on OCI-LY10 cells. Take `COc1cc(F)c(-c2nn(C(C)c3nc4ccccc4c(=O)n3-c3ccccc3)c3ncnc(N)c23)c(F)c1` (centres unmarked) [II-A-12, 2-(1-(4-amino-3-(2,6-difluoro-4-methoxyphenyl)-1H-pyrazolo[3,4-d]pyrimidin-1-yl)ethyl)-3-phenylquinazolin-4(3H)-one]: the IC50 on CK1ε was 202 nM.

`CC(C)Oc1ccc(-c2nn(C(C)c3nc4ccccc4c(=O)n3-c3ccccc3)c3ncnc(N)c23)c(F)c1F` (centres unmarked) [II-A-2, 2-(1-(4-amino-3-(2,3-difluoro-4-isopropoxyphenyl)-1H-pyrazolo[3,4-d]pyrimidin-1-yl)ethyl)-3-phenylquinazolin-4(3H)-one]: the values for the IC50 against CK1ε and in the test with OCI-LY10 cells were 145 nM and 234 nM, respectively. Also, on CK1ε (compared to compound A), the “fold increase of inhibitory activity against CK1ε” value came to 12 fold. In turn, `COc1ccc(-c2nn([C@@H](C)c3nc4cccc(F)c4c(=O)n3-c3ccccc3)c3ncnc(N)c23)c(F)c1F` [II-A-8a, (S)-2-(1-(4-amino-3-(2,3-difluoro-4-methoxyphenyl)-1H-pyrazolo[3,4-d]pyrimidin-1-yl)ethyl)-5-fluoro-3-phenylquinazolin-4(3H)-one] gave an IC50 at CK1ε of 60 nM. As for `CC(c1nc2ccccc2c(=O)n1-c1ccccc1)n1nc(-c2ccc(OC3CC3)c(F)c2F)c2c(N)ncnc21` (centres unmarked) [II-A-4, 2-(1-(4-amino-3-(4-cyclopropoxy-2,3-difluorophenyl)-1H-pyrazolo[3,4-d]pyrimidin-1-yl)ethyl)-3-phenylquinazolin-4(3H)-one], inhibition at CK1ε was half-maximal at 234 nM (IC50). Besides, the “fold increase of inhibitory activity against CK1ε” value on CK1ε (compared to compound B) is on record as 12 fold.

In the case of `CC(C)Oc1ccc(-c2nn(C(C)c3nc4cccc(F)c4c(=O)n3-c3ccccc3)c3ncnc(N)c23)c(F)c1F` (centres unmarked) [II-A-16, 2-(1-(4-amino-3-(2,3-difluoro-4-isopropoxyphenyl)-1H-pyrazolo[3,4-d]pyrimidin-1-yl)ethyl)-5-fluoro-3-phenylquinazolin-4(3H)-one], half-maximal inhibition at CK1ε (IC50) required 100 nM. Besides, the results for the “fold increase of inhibitory activity against CK1ε” value at CK1ε (compared to CUX-031773) and at CK1ε (compared to compound D) were 93.6 fold and 12.9 fold, respectively. As to `CC(C)Oc1ccc(-c2nn([C@@H](C)c3nc4ccccc4c(=O)n3-c3ccccc3)c3ncnc(N)c23)c(F)c1F` [II-A-2a, (S)-2-(1-(4-amino-3-(2,3-difluoro-4-isopropoxyphenyl)-1H-pyrazolo[3,4-d]pyrimidin-1-yl)ethyl)-3-phenylquinazolin-4(3H)-one], the IC50 against CK1ε is 88 nM. Same read-out and setting: the result for `COc1ccc(-c2nn([C@H](C)c3nc4ccccc4c(=O)n3-c3ccccc3)c3ncnc(N)c23)c(F)c1F` [II-A-1b, (R)-2-(1-(4-amino-3-(2,3-difluoro-4-methoxyphenyl)-1H-pyrazolo[3,4-d]pyrimidin-1-yl)ethyl)-3-phenylquinazolin-4(3H)-one] reads 484 nM; that for `COc1ccc(-c2nn(C(C)c3nc4cccc(Cl)c4c(=O)n3-c3cncc(F)c3)c3ncnc(N)c23)c(F)c1F` (centres unmarked) [II-B-3, 2-(1-(4-amino-3-(2,3-difluoro-4-methoxyphenyl)-1H-pyrazolo[3,4-d]pyrimidin-1-yl)ethyl)-5-chloro-3-(5-fluoropyridin-3-yl)quinazolin-4(3H)-one], 89 nM. As to `COc1ccc(-c2nn(C(C)c3nc4cccc(Cl)c4c(=O)n3-c3ccccc3)c3ncnc(N)c23)cc1F` (centres unmarked) [Compound C, reference compound], the IC50 at CK1ε amounted to 701 nM; with OCI-LY10 cells, 2700 nM.

Take `CC(C)Oc1ccc(-c2nn(C(C)c3nc4ccccc4c(=O)n3-c3ccccc3)c3ncnc(N)c23)cc1F` (centres unmarked) [Compound A, reference compound]: at CK1ε, the midpoint of inhibition, the IC50, lay at 1730 nM. Turning to `CC(C)Oc1ccc(-c2nn(C(C)c3nc4cccc(F)c4c(=O)n3-c3ccccc3)c3ncnc(N)c23)cc1F` (centres unmarked) [Compound D, reference compound], the values for the 50% inhibitory concentration (IC50) at CK1ε and in the test on OCI-LY10 cells were 1290 nM and 746 nM, respectively. Regarding `COc1ccc(-c2nn(C(C)c3nc4cccc(Cl)c4c(=O)n3N3CCCCC3)c3ncnc(N)c23)c(F)c1F` (centres unmarked) [II-C-5, 2-(1-(4-amino-3-(2,3-difluoro-4-methoxyphenyl)-1H-pyrazolo[3,4-d]pyrimidin-1-yl)ethyl)-5-chloro-3-(piperidin-1-yl)quinazolin-4(3H)-one], the IC50 was found to be 299 nM against CK1ε and 307 nM with OCI-LY10 cells. Consider `COc1ccc(-c2nn([C@@H](C)c3nc4cccc(Cl)c4c(=O)n3-c3cccnc3)c3ncnc(N)c23)c(F)c1F` [II-B-2a, (S)-2-(1-(4-amino-3-(2,3-difluoro-4-methoxyphenyl)-1H-pyrazolo[3,4-d]pyrimidin-1-yl)ethyl)-5-chloro-3-(pyridin-3-yl)quinazolin-4(3H)-one], for which, at CK1ε, it took 202 nM to reach half-maximal inhibition (IC50). `COc1ccc(-c2nn(C(C)c3nc4ccccc4c(=O)n3-c3ccccc3)c3ncnc(N)c23)c(F)c1Cl` (centres unmarked) [II-A-5, 2-(1-(4-amino-3-(3-chloro-2-fluoro-4-methoxyphenyl)-1H-pyrazolo[3,4-d]pyrimidin-1-yl)ethyl)-3-phenylquinazolin-4(3H)-one] displayed an IC50 at CK1ε of 386 nM. On to `CC(C)Oc1ccc(-c2nn([C@H](C)c3nc4ccccc4c(=O)n3-c3ccccc3)c3ncnc(N)c23)c(F)c1F` [II-A-2b, (R)-2-(1-(4-amino-3-(2,3-difluoro-4-isopropoxyphenyl)-1H-pyrazolo[3,4-d]pyrimidin-1-yl)ethyl)-3-phenylquinazolin-4(3H)-one], for which the IC50 on CK1ε turned out to be 450 nM.

`COc1ccc(-c2nn(C(C)c3nc4cccc(F)c4c(=O)n3-c3ccccc3)c3ncnc(N)c23)c(F)c1F` (centres unmarked) [II-A-8, 2-(1-(4-amino-3-(2,3-difluoro-4-methoxyphenyl)-1H-pyrazolo[3,4-d]pyrimidin−1-yl)ethyl)-5-fluoro-3-phenylquinazolin-4(3H)-one] displayed a half-maximal inhibitory concentration (IC50) at CK1ε of 118 nM. `CC(c1nc2ccccc2c(=O)n1-c1ccccc1)n1nc(-c2ccc(OC3CC3)c(F)c2)c2c(N)ncnc21` (centres unmarked) [Compound B, reference compound] returned an IC50 at CK1ε of 2710 nM.
